Consider two compounds from patent publication US12391643B2, “Substituted amino-thiol and amino-disulfide compounds, and uses thereof” (The Regents of the University of California, priority 2019, dated 2025).

Entries after “also recorded” stand apart in the source; their conditions may differ.

In data set [1] the test system is Pooled human hepatocytes. The experiment in a line: Hepatocyte elimination (in vitro metabolic stability, percent parent remaining by LC/MS/MS). It is filed as in vitro ADME. The text has this: In vitro experiments with isotopically enriched cystamine and cysteamine in hepatocytes.
The assessment of in vitro metabolic stability provides a means to measure the susceptibility of a test compound to biotransformation by the liver. While liver microsomes primarily assess cytochrome P450 system-mediated metabolism (phase I metabolism), hepatocytes represent a complete, undisrupted metabolic system, including cofactors, and thus assess both phase I and phase II metabolism. In all cases, the metabolic stability of test compounds was determined by monitoring, via LC/MS/MS, the percent parent compound remaining versus time of incubation in human hepatocytes.
Pooled human hepatocytes (catalog number HMCS10, ThermoFischer Scientific) were thawed according to the manufacturers instructions. Thawed hepatocytes were washed by centrifugation and replated in Williams' Medium E supplemented with Heptocyte Plating Supplement Pack, Serum-containing.
Cells were diluted to 1,000,000 per ml in maintenance media (Williams' E Media supplemented with Hepatocyte Maintenance Supplement Pack, Serum-free). 500 μl of cell suspension was added to each well of a microtiter plate containing 500 μl of the deuterated test agent and placed on an orbital shaker at 120 rpm at 37 C. At the appropriate time point 50 μl aliquots were removed from the well and added to 50 μl of ice cold ethyl acetate and vortexed for 5 min and froze until chromatography analysis.

In data set [2] the test system is cystinotic fibroblasts. The experiment in a line: Intracellular NEM-cysteamine, NEM-cysteine, cystamine and mixed disulfide levels in cystinotic fibroblasts. Particulars: cystamine 50, 100, 200 μM compared with cysteamine 200 μM (FIG. 2). It is filed as cell-based, human.
In data set [3] the test system is cystinotic fibroblasts. Kind of data set: Cystine re-accumulation after washout in cystinotic fibroblasts. It is filed as cell-based, human. Particulars: 3 h incubation with 100 μM cystamine, then cystamine-free media. On the procedure:
(§1) In vitro experiments with isotopically enriched cystamine in cystinotic fibroblasts. Fibroblasts from a de-identified cystinotic patient were split 3× from 2 plates into 36 plates. Three different drugs were used for the experiments: cystamine (non-labeled), d2-cystamine, and d4-cystamine. There were two time series for each drug. The first was with constant drug incubation and included: 0, 10 min, 30 min, 1 h, 3 h, and 5 h. The other series included a washout after 3 h drug incubation, using fresh media following a PBS wash, and included the timepoints: 0, 30 min, 1 h, 3 h, 5 h, and 17 h. A direct quench and extraction technique were used for harvesting all cells to minimize further oxidation and metabolism. This included 2× washes with PBS that included 5 mM N-ethylmaleimide for trapping free thiol groups, and then scraping the plates with an acidified organic solvent extraction solution containing both d4-cystine and d4-cysteamine (plus d-8 cystamine) as internal standards. All samples were run on an API 4500 triple quadrupole LC-MS/MS, with selective reaction monitoring (SRM/MRM) for the following compounds of interest: cystine, NEM-cysteamine, NEM-cysteine, cystamine, and 2-(methylthio)ethylamine. All data fit well to single exponential curves (either decay or association), except where mentioned.
Cystine measurement after washout: Fibroblast cultures were exposed to 100 uM cystamine/d2-cystamine/d4-cystamine for 3 h. Following incubation, cells were washed with PBS, and then incubated with regular media (containing FBS) for the following timepoints: 0 min, 30 min, 1 h, 3 h, 5 h, and 17 h. Cells were harvested identically as described previously.
(§2) Fibroblasts from a de-identified cystinotic patient were split 3× from 2 plates into 18 plates. Two different drugs were used for the experiments: D4n-cystamine, and D8-cystamine. There were two time series for each drug. The first was with constant drug incubation and included: 0, 15 min, 30 min, 1 hr, and 3 hr. The other series included a washout after 3 hours of drug incubation, using fresh media following a PBS wash, and included the time-points: 0, 1 hr, 3 hr, and 16 hr. A direct quench and extraction technique was used for harvesting all cells to minimize further oxidation and metabolism. […] All samples were run on an API 4500 triple quadruple LC-MS/MS, with selective reaction monitoring (SRM/MRM) for the following compounds of interest: cystine, NEM-cysteamine, NEM-cysteine, and cystamine. All data fit well to single exponential curves (either decay or association), except where mentioned.
Fibroblast cultures were exposed to 50 μM cystamine (D8 or D4n) for 3 hours. Following incubation, cells were washed with PBS and then incubated with regular mediate containing FBS for 1 h, 3 h, and 16 h. Cells were harvested as above. […] Cystine reaccumulation between D4n-cystamine and D8-cystamine are very similar, indicating similar levels of drug remaining during the washout timepoints (FIG. 15).

For data set [4], the system named is cystinotic fibroblasts. Kind of data set: Intracellular NEM-cysteamine, NEM-cysteine, cystamine and mixed disulfide levels in cystinotic fibroblasts. It is filed as cell-based, human. Particulars: for NEM-cysteamine level during constant incubation: 100 uM drug, early timepoints, normalized against d4-cystine; for Intracellular cystamine level during constant drug incubation: FIG. 10. Here is the method:
as §1
NEM-cysteamine and NEM-cysteine during constant incubation. Fibroblast cultures were exposed to drug (either cystamine, d2-cystamine, or d4-cystamine) and harvested as described on page 2 for the cystine depletion curve. NEM-cysteamine (or NEM-d1-cysteamine or NEM-d2-cysteamine) was measured for each respective plate and normalized against the signal for d4-cystine.
NEM-cysteamine during washout. Fibroblast cultures were exposed to drug (either cystamine, d2-cystamine, or d4-cystamine) for 3 h were then exposed to media for various timepoints and harvested as previously described.
NEM-cysteine during washout. Fibroblast cultures were exposed to drug (either cystamine, d2-cystamine, or d4-cystamine) for 3 h were then exposed to media for various timepoints and harvested as previously described.
Cystamine during constant drug incubation. Fibroblast cultures were exposed to drug (either cystamine, d2-cystamine, or d4-cystamine) for various timepoints following harvesting as described earlier. Cystamine could be measured in the non-labeled cystamine incubation as well as the d4-cystamine incubation. d2-cystamine could not be accurately measured due to a strong background interference signal corresponding to that mass. No cystamine could be measured in the washout experiments.

Data set [5] concerns cystinotic fibroblasts. Kind of data set: Cystine depletion during constant drug exposure in cystinotic fibroblasts. Particulars: cystamine 50, 100, 200 μM; cysteamine 200 μM (FIG. 1). It is filed as cell-based, human. Here is the method: as §1
Following incubation, cells were washed 2× in PBS containing N-ethylmaleimide.
as §2

In data set [6] the test system is intracellular cystine (circulating white blood cells). Particulars: taken regularly; measured in circulating white blood cells; cited from earlier work.

Turning to `NCCSSCCN` [Cystamine], the “Hepatocyte elimination, % remaining” value was found to be 100% in data set [1] (TIME 0 min), 18.5% in data set [1] (TIME 15 min) and 6.5% in data set [1] (TIME 30 min). Moreover, the “Conversion of intracellular cystine to mixed disulfide (MD) of cysteine-cysteamine” value in data set [2] was “delayed”. The “Cystine level 17 h after washout versus plates not exposed to cystamine” value in data set [3] is listed as “identical to the 17 h cystine measurement”. For the same compound, the “NEM-cysteamine level during constant incubation” value in data set [4] is “faster/higher; also recorded: Higher levels of cysteamine”; in data set [4] (listed as non-labeled cystamine) it was “highest”. In addition, the “Intracellular cystamine level during constant drug incubation” value in data set [4] was “deplete rapidly”; in data set [4] (listed as cystamine), “depletes rapidly”. Further, in data set [4] (washout period), the “NEM-cysteine level after 3 h incubation and washout” value is “rise and increase”. In addition, the “Reduction of intracellular cystine levels” value in data set [5] is on record as “effective in reducing intracellular cystine levels in a dose-response fashion”.
Consider `NCCS` [Cysteamine, reference compound], for which the “Depletion of intracellular cystine” value in data set [6] is “up to 90%”. The “Reduction of intracellular cystine levels” value in data set [5] was “effective and more rapid in its response time”.
